Experimental data from US20150272931A1, “New Treatment” (priority 2012, published 2015).

System: sea lice (L. salmonis)
Test: In-feed treatment of sea lice infested salmon: efficacy
Type: in vivo, Lepeophtheirus salmonis on Atlantic salmon
Details: for Reduction of total sea lice: adult sea lice, lice examined ten days after end of treatment
Source text: In-feed treatment of sea lice infested salmon with 5 different neonicotinoids (a) Method: Atlantic salmon (estimated mean weight 50-100 g) were batch weighed and allocated to a single 2 m diameter challenge tank. Fish were challenged with sea lice (L. salmonis) copepodids. Within one week of the successful lice challenge, fish were randomly allocated from the 2 m challenge tank to 1 m diameter treatment tanks so that each tank contained thirty fish.
Fish were maintained until lice developed to adult stages. This was monitored by periodic examination of fish from the control tank. There were five test compounds acetamiprid (A), clothianidin (B), imidacloprid (C), nitenpyram (D) plus a control (E), each compound was tested at three doses. Experimental diets were prepared by top dressing feed pellets with the powder formulation and sealing with fish oil. Once lice had developed to adult stages, fish in all tanks received an in-feed treatment according to the relevant group for a period of seven days. Uneaten feed was collected daily to estimate the mean dose achieved in each group. Fish were examined for lice ten days following the end of the treatment period.
Following the 7day treatment period, the mean sea lice count in the control group was 7±3 adult sea lice meaning the total of adult males, adult non-ovigerous females and adult ovigerous females.

[1] = dose 1 mg/kg/day in feed for 7 days
[2] = dose 5 mg/kg/day in feed for 7 days
[3] = dose 10 mg/kg/day in feed for 7 days

Row | Compound | Reduction of total sea lice [1] | Reduction of total sea lice [2] | Reduction of total sea lice [3] | sea lice reduction efficacy (at all three selected concentrations (10, 5, 1 mg/kg/day)) | sea lice elimination (in-feed treatment, summary statement)
1 | C/C(=N\C#N)N(C)Cc1ccc(Cl)nc1 [Acetamiprid, acetamiprid] | 53% | 64% | 85% |  | 
2 | CN/C(=N\[N+](=O)[O-])NCc1cnc(Cl)s1 [Clothianidin, (E)-1-(2-Chlor-1,3-thiazol-5-ylmethyl)-3-methyl-2-nitroguanidin] | 90% | 98% | 99% | ≥ 90% | full sea lice elimination
3 | O=[N+]([O-])NC1=NCCN1Cc1ccc(Cl)nc1 [Imidacloprid, imidacloprid] | 91% | 94% | 81% |  | 
4 | CCN(Cc1ccc(Cl)nc1)/C(=C/[N+](=O)[O-])NC [Nitenpyram, nitenpyram] | 48% | 89% | 89% |  | 
